Patent US9458137B2, “Substituted indol-5-ol derivatives and their therapeutical applications” (NantBioScience, Inc., priority 2012, dated 2016)

Key:
Experiment in all cases: Kinase panel activity
Type in all cases: biochemical
Details in all cases: 0.1 μM, ATP Km
CDK5/p25(h) = CDK5/p25(h) (Homo sapiens, UniProt Q00535)
Method: (§1) The effect of NTW-3475 on kinase activity was tested for a wide range of kinases and is shown in Table 2: Summary Sheet, Activity % ATP Concentration: Km

Pim-3(h) = Pim-3(h) (Homo sapiens, UniProt Q86V86)
Method: as §1

CDK1/cyclinB(h) = CDK1/cyclinB(h) (Homo sapiens, UniProt P06493)
Method: as §1

IR(h), activated = IR(h), activated (Homo sapiens, UniProt P06213)
Method: as §1

PAK5(h) = PAK5(h) (Homo sapiens, UniProt Q9P286)
Method: as §1

IKKβ(h) = IKKβ(h) (Homo sapiens, UniProt O14920)
Method: as §1

B1k(h) = B1k(h) (Homo sapiens, UniProt P51451)
B1k(h), sequence (P51451 whole entry): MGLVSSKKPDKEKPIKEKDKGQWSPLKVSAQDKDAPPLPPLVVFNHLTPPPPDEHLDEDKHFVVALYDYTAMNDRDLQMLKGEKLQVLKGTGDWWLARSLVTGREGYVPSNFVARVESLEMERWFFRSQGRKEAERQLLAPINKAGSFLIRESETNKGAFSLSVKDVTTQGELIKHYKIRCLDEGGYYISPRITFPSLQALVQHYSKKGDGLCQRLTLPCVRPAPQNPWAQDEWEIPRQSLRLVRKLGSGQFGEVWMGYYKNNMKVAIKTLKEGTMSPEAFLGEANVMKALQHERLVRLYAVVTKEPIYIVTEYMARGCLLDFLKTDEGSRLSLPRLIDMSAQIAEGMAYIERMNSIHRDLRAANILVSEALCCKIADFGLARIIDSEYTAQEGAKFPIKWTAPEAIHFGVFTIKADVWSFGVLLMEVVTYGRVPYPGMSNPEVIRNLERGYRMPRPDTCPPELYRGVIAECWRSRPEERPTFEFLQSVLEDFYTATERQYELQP
Method: as §1

FGFR1(h) = molecular target: T1, FGFR1(h) (Homo sapiens, UniProt P11362)
T1 construct: purchased Millipore (KinaseProfiler service)
Method: as §1

PAK6(h) = PAK6(h) (Homo sapiens, UniProt Q9NQU5)
PAK6(h), sequence (Q9NQU5 whole entry): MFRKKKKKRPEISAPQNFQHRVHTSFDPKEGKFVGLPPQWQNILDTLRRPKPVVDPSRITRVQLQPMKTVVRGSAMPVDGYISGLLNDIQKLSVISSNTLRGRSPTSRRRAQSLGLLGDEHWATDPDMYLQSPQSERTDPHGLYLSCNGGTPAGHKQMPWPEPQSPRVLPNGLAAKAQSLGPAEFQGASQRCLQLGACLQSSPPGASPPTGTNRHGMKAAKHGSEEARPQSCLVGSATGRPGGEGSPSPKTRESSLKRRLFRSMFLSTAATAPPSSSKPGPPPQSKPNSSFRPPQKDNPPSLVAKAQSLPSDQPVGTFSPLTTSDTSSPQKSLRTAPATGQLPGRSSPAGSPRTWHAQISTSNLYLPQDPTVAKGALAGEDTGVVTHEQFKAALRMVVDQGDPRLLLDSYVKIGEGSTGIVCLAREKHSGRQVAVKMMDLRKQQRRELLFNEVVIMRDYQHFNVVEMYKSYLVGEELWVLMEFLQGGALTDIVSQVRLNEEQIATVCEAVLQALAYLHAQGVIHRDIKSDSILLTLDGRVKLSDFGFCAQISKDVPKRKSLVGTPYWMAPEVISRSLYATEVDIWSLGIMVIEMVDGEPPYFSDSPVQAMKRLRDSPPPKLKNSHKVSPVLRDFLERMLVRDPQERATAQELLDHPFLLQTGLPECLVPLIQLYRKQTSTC
Method: as §1

SRPK1(h) = molecular target: T2, SRPK1(h) (Homo sapiens, UniProt Q96SB4)
T2 construct: purchased Millipore (KinaseProfiler service)
T2 sequence (Q96SB4 whole entry): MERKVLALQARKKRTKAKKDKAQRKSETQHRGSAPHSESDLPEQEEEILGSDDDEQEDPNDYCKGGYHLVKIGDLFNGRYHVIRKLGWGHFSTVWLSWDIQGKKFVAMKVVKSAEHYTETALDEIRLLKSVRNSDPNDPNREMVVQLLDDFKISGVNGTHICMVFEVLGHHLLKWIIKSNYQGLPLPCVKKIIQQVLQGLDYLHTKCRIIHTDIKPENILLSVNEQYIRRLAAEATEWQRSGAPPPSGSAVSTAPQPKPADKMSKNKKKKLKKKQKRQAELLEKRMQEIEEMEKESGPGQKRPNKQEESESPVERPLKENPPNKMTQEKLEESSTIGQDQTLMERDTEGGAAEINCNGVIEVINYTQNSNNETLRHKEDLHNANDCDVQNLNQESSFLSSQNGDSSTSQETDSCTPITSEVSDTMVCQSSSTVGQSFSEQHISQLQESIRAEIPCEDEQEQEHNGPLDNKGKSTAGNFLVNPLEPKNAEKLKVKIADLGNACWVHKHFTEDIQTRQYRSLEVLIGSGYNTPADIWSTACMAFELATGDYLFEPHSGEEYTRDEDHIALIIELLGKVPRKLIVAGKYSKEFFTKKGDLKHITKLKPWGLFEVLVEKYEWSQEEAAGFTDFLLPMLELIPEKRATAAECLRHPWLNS
Method: as §1

PKC ? (h) = PKC ? (h) (Homo sapiens, UniProt Q02156)
Method: as §1

Ab1(Q252H)(h) = Ab1(Q252H)(h) (Homo sapiens, UniProt P00519, Q252H)
Method: as §1

NLK(h) = NLK(h) (Homo sapiens, UniProt Q9UBE8)
Method: as §1

MRCKα(h) = molecular target: T3, MRCKα(h) (Homo sapiens, UniProt Q5VT25)
T3 construct: purchased Millipore (KinaseProfiler service)
Method: as §1

MST3(h) = MST3(h) (Homo sapiens, UniProt Q9Y6E0)
Method: as §1

CaMKIV(h) = CaMKIV(h) (Homo sapiens, UniProt Q16566)
Method: as §1

cKit(h) = cKit(h) (Homo sapiens, UniProt P10721)
cKit(h), sequence (P10721 26-976): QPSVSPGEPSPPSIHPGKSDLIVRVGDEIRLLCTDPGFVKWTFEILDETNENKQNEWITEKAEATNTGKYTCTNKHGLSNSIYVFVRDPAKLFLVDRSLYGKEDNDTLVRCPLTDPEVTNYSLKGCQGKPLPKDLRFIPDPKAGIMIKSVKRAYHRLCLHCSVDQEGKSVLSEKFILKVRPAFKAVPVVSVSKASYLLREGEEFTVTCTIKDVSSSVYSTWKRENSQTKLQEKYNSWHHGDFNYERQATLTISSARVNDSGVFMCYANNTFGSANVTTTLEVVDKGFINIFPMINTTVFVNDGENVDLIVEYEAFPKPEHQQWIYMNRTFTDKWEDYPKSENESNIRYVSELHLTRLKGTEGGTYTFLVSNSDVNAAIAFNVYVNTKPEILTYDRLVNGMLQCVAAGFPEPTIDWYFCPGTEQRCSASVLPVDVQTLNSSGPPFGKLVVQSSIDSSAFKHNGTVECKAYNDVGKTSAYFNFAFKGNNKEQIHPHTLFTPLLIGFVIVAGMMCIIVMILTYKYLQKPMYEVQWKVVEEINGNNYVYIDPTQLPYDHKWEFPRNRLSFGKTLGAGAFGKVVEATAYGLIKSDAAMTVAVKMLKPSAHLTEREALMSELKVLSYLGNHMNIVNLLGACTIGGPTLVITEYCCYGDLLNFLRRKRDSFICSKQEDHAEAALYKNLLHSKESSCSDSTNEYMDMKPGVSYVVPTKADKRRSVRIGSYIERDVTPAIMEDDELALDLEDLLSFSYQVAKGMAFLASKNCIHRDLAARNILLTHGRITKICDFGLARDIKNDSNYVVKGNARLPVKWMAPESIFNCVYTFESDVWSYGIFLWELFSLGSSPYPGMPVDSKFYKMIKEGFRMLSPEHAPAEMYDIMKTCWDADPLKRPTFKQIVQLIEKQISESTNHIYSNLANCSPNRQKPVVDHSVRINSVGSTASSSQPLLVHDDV
Method: as §1

BrSK2(h) = BrSK2(h) (Homo sapiens, UniProt Q8IWQ3)
Method: as §1

MSK2(h) = molecular target: T4, MSK2(h) (Homo sapiens, UniProt O75676)
T4 construct: purchased Millipore (KinaseProfiler service)
T4 sequence (O75676 whole entry): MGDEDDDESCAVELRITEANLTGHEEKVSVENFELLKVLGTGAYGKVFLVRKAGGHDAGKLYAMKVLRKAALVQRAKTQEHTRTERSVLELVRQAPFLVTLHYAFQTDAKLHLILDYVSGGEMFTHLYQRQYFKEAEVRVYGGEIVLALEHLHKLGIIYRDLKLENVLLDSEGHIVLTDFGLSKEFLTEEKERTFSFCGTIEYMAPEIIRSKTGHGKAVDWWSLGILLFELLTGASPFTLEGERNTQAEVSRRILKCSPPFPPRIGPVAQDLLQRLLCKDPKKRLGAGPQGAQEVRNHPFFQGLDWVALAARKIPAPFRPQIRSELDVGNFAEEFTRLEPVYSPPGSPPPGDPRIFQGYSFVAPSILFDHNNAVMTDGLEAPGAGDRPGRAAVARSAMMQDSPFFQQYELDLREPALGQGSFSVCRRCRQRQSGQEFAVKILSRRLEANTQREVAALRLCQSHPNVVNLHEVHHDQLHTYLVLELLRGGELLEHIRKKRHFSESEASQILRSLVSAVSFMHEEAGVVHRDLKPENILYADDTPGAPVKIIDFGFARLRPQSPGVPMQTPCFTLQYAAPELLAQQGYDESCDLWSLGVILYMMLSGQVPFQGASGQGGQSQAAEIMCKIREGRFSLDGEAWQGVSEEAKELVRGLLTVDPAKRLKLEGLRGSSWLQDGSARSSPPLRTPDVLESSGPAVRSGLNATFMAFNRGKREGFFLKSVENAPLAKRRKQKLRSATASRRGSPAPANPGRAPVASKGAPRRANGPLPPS
Method: as §1

EphA5(h) = molecular target: T5, EphA5(h) (Homo sapiens, UniProt P54756)
T5 construct: purchased Millipore (KinaseProfiler service)
Method: as §1

WNK2(h) = WNK2(h) (Homo sapiens, UniProt Q9Y3S1)
Method: as §1

Syk(h) = molecular target: T6, Syk(h) (Homo sapiens, UniProt P43405)
T6 construct: purchased Millipore (KinaseProfiler service)
Method: as §1

MAPK2(h) = MAPK2(h) (Homo sapiens, UniProt P28482)
Method: as §1

WNK3(h) = WNK3(h) (Homo sapiens, UniProt Q9BYP7)
Method: as §1

PKCβII(h) = PKCβII(h) (Homo sapiens, UniProt P05771)
Method: as §1

NEK2(h) = NEK2(h) (Homo sapiens, UniProt P51955)
NEK2(h), sequence (P51955 whole entry): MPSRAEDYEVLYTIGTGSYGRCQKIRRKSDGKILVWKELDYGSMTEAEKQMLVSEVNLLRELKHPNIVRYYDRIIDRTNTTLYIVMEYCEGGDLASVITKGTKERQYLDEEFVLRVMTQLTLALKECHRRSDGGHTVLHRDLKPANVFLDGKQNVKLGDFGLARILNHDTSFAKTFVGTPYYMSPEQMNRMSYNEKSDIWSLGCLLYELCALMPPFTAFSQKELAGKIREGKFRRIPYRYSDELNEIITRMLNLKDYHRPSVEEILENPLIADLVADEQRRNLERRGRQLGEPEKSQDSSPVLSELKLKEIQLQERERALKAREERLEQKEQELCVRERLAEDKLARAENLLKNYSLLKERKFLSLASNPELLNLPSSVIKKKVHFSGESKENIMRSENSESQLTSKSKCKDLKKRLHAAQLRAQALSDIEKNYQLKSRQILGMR
Method: as §1

MuSK(h) = MuSK(h) (Homo sapiens, UniProt O15146)
Method: as §1

PKBγ(h) = PKBγ(h) (Homo sapiens, UniProt Q9Y243)
Method: as §1

Mnk2(h) = molecular target: T7, Mnk2(h) (Homo sapiens, UniProt Q9HBH9)
T7 construct: purchased Millipore (KinaseProfiler service)
Method: as §1

Mer(h) = molecular target: T8, Mer(h) (Homo sapiens, UniProt Q12866)
T8 construct: purchased Millipore (KinaseProfiler service)
Method: as §1

PKCβ1(h) = PKCβ1(h) (Homo sapiens, UniProt P05771)
Method: as §1

Fyn(h) = Fyn(h) (Homo sapiens, UniProt P06241)
Method: as §1

EphB4(h) = molecular target: T9, EphB4(h) (Homo sapiens, UniProt P54760)
T9 construct: purchased Millipore (KinaseProfiler service)
T9 sequence (P54760 16-987): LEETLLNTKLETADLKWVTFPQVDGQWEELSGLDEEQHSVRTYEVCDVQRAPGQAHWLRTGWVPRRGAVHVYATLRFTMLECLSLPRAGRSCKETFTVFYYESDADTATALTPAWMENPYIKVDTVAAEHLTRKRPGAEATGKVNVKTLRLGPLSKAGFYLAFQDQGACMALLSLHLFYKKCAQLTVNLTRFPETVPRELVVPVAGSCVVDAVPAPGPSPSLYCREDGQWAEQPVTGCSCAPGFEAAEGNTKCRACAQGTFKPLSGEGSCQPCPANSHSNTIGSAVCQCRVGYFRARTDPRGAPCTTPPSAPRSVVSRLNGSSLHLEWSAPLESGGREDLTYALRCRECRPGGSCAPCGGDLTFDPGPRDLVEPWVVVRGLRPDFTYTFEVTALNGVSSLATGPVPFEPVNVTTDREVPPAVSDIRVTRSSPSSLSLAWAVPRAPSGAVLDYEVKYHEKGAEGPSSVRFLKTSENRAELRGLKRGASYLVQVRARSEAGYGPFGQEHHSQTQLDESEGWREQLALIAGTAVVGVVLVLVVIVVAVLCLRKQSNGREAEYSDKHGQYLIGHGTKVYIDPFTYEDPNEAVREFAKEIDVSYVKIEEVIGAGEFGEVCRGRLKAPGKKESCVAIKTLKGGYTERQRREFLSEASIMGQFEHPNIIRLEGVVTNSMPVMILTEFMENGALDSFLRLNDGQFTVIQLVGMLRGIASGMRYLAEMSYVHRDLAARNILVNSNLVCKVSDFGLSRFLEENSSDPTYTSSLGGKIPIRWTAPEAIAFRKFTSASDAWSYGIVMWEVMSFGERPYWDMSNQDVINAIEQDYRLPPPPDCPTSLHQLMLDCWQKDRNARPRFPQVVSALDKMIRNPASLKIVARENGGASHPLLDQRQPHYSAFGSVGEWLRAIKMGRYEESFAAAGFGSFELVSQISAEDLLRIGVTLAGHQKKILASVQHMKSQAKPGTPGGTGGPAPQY
Method: as §1

MSK1(h) = molecular target: T10, MSK1(h) (Homo sapiens, UniProt O75582)
T10 construct: purchased Millipore (KinaseProfiler service)
Method: as §1

Met(D1246N)(h) = molecular target: T11, Met(D1246N)(h) (Homo sapiens, UniProt P08581, D1228N)
T11 construct: purchased Millipore (KinaseProfiler service)
Method: as §1

mTOR(h) = mTOR(h) (Homo sapiens, UniProt P42345)
Method: as §1

CDK3/cyclinE(h) = CDK3/cyclinE(h) (Homo sapiens, UniProt Q00526)
Method: as §1

Ab1(M351T)(h) = Ab1(M351T)(h) (Homo sapiens, UniProt P00519, M351T)
Method: as §1

Pyk2(h) = molecular target: T12, Pyk2(h) (Homo sapiens, UniProt Q14289)
T12 construct: purchased Millipore (KinaseProfiler service)
Method: as §1

cKit(D816V)(h) = cKit(D816V)(h) (Homo sapiens, UniProt P10721, D816V)
cKit(D816V)(h), sequence (P10721 26-976 D816V): as the sequence (P10721 26-976) above, with D791V counted along it
Method: as §1

Activity % (CDK5/p25(h)): 60%
Activity % (Pim-3(h)): 99%
Activity % (CDK1/cyclinB(h)): 81%
Activity % (IR(h), activated): 13%
Activity % (PAK5(h)): 29%
Activity % (IKKβ(h)): 109%
Activity % (B1k(h)): 9%
Activity % (FGFR1(h)): −1%
Activity % (PAK6(h)): 85%
Activity % (SRPK1(h)): 96%
Activity % (PKC ? (h)): 99%
Activity % (Ab1(Q252H)(h)): −2%
Activity % (NLK(h)): 96%
Activity % (MRCKα(h)): 102%
Activity % (MST3(h)): 9%
Activity % (CaMKIV(h)): 106%
Activity % (cKit(h)): 84%
Activity % (BrSK2(h)): 44%
Activity % (MSK2(h)): 90%
Activity % (EphA5(h)): 122%
Activity % (WNK2(h)): 99%
Activity % (Syk(h)): 84%
Activity % (MAPK2(h)): 105%
Activity % (WNK3(h)): 86%
Activity % (PKCβII(h)): 109%
Activity % (NEK2(h)): 101%
Activity % (MuSK(h)): 48%
Activity % (PKBγ(h)): 106%
Activity % (Mnk2(h)): 92%
Activity % (Mer(h)): 2%
Activity % (PKCβ1(h)): 92%
Activity % (Fyn(h)): 1%
Activity % (EphB4(h)): 14%
Activity % (MSK1(h)): 104%
Activity % (Met(D1246N)(h)): 20%
Activity % (mTOR(h)): 115%
Activity % (CDK3/cyclinE(h)): 59%
Activity % (Ab1(M351T)(h)): −2%
Activity % (Pyk2(h)): 59%
Activity % (cKit(D816V)(h)): 63%
Structure (SMILES): Cc1cc2c(F)c(Oc3nc(Nc4cc(C5CC5)[nH]n4)cc(N4CCN(C)CC4)n3)cc(F)c2[nH]1 [NTW-3475]
